Source: ChEMBL document CHEMBL1125505, “Nucleosides and nucleotides. 112. 2-(1-Hexyn-1-yl)adenosine-5'-uronamides: a new entry of selective A2 adenosine receptor agonists with potent antihypertensive activity” (J Med Chem, 1992)

What was measured:
Rattus norvegicus [1] = experiment: Dose producing 10% decrease in heart rate of anesthetized spontaneously hypertensive rats (SHR's); assay type: functional
Rattus norvegicus [2] = experiment: Dose producing 30% decrease in blood pressure of anesthetized spontaneously hypertensive rats (SHR's); assay type: functional
Adenosine A2 receptor = Adenosine A2 receptor (Rattus norvegicus, UniProt P29276+P30543); assay type: protein assay
Adenosine receptor A1 = target: T1, Adenosine receptor A1 (Rattus norvegicus, UniProt P25099); experiment: Binding affinity against adenosine A1 receptor from rat brain membranes using [3H]cyclohexyladenosine as radioligand.
T1 sequence (P25099 whole entry): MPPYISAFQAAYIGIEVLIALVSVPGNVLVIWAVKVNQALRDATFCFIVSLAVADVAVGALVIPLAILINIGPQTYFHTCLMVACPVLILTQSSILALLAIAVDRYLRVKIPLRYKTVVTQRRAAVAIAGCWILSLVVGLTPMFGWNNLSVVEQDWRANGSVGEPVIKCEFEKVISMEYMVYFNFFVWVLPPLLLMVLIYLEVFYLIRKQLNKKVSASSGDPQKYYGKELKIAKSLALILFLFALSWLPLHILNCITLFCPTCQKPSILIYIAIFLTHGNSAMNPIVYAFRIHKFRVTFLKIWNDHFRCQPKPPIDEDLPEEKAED

| SMILES | ED10 (Rattus norvegicus [1]) | ED30 (Rattus norvegicus [2]) | Ki (Adenosine A2 receptor) | Ki (Adenosine receptor A1) |
| --- | --- | --- | --- | --- |
| COc1cc(OC)cc(C(CNc2ncnc3c2ncn3[C@@H]2O[C@H](CO)[C@@H](O)[C@H]2O)c2ccccc2C)c1 (some centres undefined) | > 100 µg/kg | 12.3 µg/kg | 4.6 nM | 64 nM |
| CCNC(=O)[C@H]1O[C@@H](n2cnc3c(N)ncnc32)[C@H](O)[C@@H]1O [NECA] | 0.35 µg/kg | 0.23 µg/kg |  |  |
| CCNC(=O)[C@H]1O[C@@H](n2cnc3c(N)nc(NCCc4ccc(CCC(=O)O)cc4)nc32)[C@H](O)[C@@H]1O [CGS-21680] | > 100 µg/kg | 0.83 µg/kg |  |  |
| CCCCC#Cc1nc(N)c2ncn(C3O[C@H](CNS(C)(=O)=O)[C@@H](O)[C@H]3O)c2n1 (some centres undefined) | > 100 µg/kg | > 100 µg/kg | > 181 nM | > 472 nM |
| CCCCC#Cc1nc(N)c2ncn([C@@H]3O[C@H](C(=O)NC4CC4)[C@@H](O)[C@H]3O)c2n1 | 40.7 µg/kg | 0.17 µg/kg | 2.6 nM | 136 nM |
| CC(=O)O[C@]1(C(C)=O)CC[C@H]2[C@@H]3C=C(Cl)C4=CC(=O)[C@@H]5C[C@@H]5[C@]4(C)[C@H]3CC[C@@]21C [CYPROTERONE ACETATE] | 0.17 µg/kg | 0.53 µg/kg | 336 nM |  |
| Nc1nc(Nc2ccccc2)nc2c1ncn2[C@@H]1O[C@H](CO)[C@@H](O)[C@H]1O | > 100 µg/kg | 6.1 µg/kg | 83 nM |  |
| CCCCC#Cc1nc(N)c2ncn(C3O[C@H](C(=O)NCCC)[C@@H](O)[C@H]3O)c2n1 (some centres undefined) | > 100 µg/kg | 2.88 µg/kg | 44 nM | 1810 nM |
| CCCCC#Cc1nc(N)c2ncn(C3O[C@H](C(=O)NC)[C@@H](O)[C@H]3O)c2n1 (some centres undefined) | > 100 µg/kg | 0.51 µg/kg | 11 nM | 1780 nM |
| CCCCC#Cc1nc(N)c2ncn(C3O[C@H](CNC(=O)NC)[C@@H](O)[C@H]3O)c2n1 (some centres undefined) | > 100 µg/kg | > 100 µg/kg | > 181 nM | > 472 nM |
| CCCCC#Cc1nc(N)c2ncn([C@@H]3O[C@H](C(=O)NCC)[C@@H](O)[C@H]3O)c2n1 | > 100 µg/kg | 0.3 µg/kg | 4.8 nM | 276 nM |
| CCCCCCC#Cc1nc(N)c2ncn([C@@H]3O[C@H](CO)[C@@H](O)[C@H]3O)c2n1 | > 100 µg/kg | 0.35 µg/kg | 6.1 nM | 117 nM |
| CCCCC#Cc1nc(N)c2ncn([C@@H]3O[C@H](CO)[C@@H](O)[C@H]3O)c2n1 | 70.4 µg/kg | 0.11 µg/kg |  | 103 nM |
| CCCCC#Cc1nc(N)c2ncn([C@@H]3O[C@H](C(=O)NCCCC)[C@@H](O)[C@H]3O)c2n1 | > 100 µg/kg | 26.4 µg/kg | 169 nM | 1930 nM |
| CCCCC#Cc1nc(N)c2ncn([C@@H]3O[C@H](CCl)[C@@H](O)[C@H]3O)c2n1 | > 3 µg/kg | > 3 µg/kg | 5.2 nM | 217 nM |
| CCCCC#Cc1nc(N)c2ncn(C3O[C@H](C/N=C(\S)NC)[C@@H](O)[C@H]3O)c2n1 (some centres undefined) | > 100 µg/kg | 54.5 µg/kg | > 181 nM | > 472 nM |
| CCCCC#Cc1nc(N)c2ncn(C3O[C@H](CNC(C)=O)[C@@H](O)[C@H]3O)c2n1 (some centres undefined) | > 100 µg/kg | > 100 µg/kg | > 181 nM | > 472 nM |
| CCCCC#Cc1nc(N)c2ncn([C@@H]3O[C@H](C(N)=O)[C@@H](O)[C@H]3O)c2n1 | > 100 µg/kg | 0.18 µg/kg | 19 nM | 1270 nM |
| CCCCC#Cc1nc(N)c2ncn(C3O[C@H](CNC=O)[C@@H](O)[C@H]3O)c2n1 (some centres undefined) | > 100 µg/kg | > 100 µg/kg | > 181 nM | > 472 nM |
